Paper doi:10.1101/2021.12.13.472350v1, “An amphipathic and cationic antimicrobial peptide kills colistin resistant Gram-negative pathogens in vivo” (bioRxiv, 2021)
Values after ≈ are worked out from the molar mass of the structure shown.

What was measured:
E. coli ATCC 25922 [1] = test: MIC in the presence of 50% human serum; format: cell-based; conditions: 50% heat inactivated human male AB serum and 50% MHB-II; crude measure of protein binding/interference; triplicate
Procedure: The minimum inhibitory concentration (MIC) was determined as previously described ([68]), with minor modifications. Briefly, exponentially growing cultures in MHB-II (37°C) were diluted to an OD600 = 0.002, approximately 1×10^6 colony forming units (CFU) per ml. 100 µl of bacterial suspension was added to polypropylene microtiter plates containing 100 µl of Colistin or ChIP dilutions. Giving a final bacterial inoculum of ∼ 5×10^5 CFU/ml. Colistin sulfate salt (Sigma-Aldrich) and ChIP (Genscript >95% purity) was dissolved in H2O. ChIP MIC in serum was determined in the presence of 50% (heat inactivated) human serum (Sigma) and 50% MHB-II. All experiments were performed in triplicate.

E. coli ATCC 25922 [2] = test: Time kill experiments; format: cell-based; conditions: 1xMIC, exponentially growing cells, 5×10^5-1×10^6 CFU/ml, MHB-II; plateau, regrowth evident after 3 hours
E. coli ATCC 25922 [3] = test: In vivo sepsis/peritonitis mouse infection model; conditions: NMRI mice infected IP
E. coli ESBL20150072 = test: In vivo sepsis/peritonitis mouse infection model; conditions: NMRI mice infected IP; 10 mg/kg IP at 1 and 3 h; 5 hours post infection
Procedure: Outbred female NMRI mice (NMRI; weight 26–30 g; Taconic, Denmark) were used throughout the study, as previously described ([69], [70]). […] Colistin is recommended at a dose of 5-10 mg/kg, according to the European Medicines Agency (EMA) ([71]). The animals were kept in Macrolon type III cages in groups of six and allowed free access to feed and water. Experiments were initiated after an acclimatization period of 7 days. Inoculation (bacterial infection) was performed by intraperitoneal (IP) injection of 0.5 ml bacterial suspension containing 2×10^7 CFU/ml and 5% (wt/vol) mucin (Sigma-Aldrich). During experiments, groups of eight mice per cage constituting one experimental unit were randomly assigned to treatment (5 mg/kg ChIP and 10 mg/kg ChIP or colistin 10 mg/kg and 24 mg/kg) or no treatment (vehicle). Peptide and colistin was administered as a single bolus injection IP (volume injected 0.2 ml) at 1 hours and again 3. At various times post-infection, ∼200 µL blood from the jaw/cheek was collected in Eppendorf tubes with anti-coagulate (Sarstedt, Nümbrecht, Germany). Peritoneal lavage was performed by injecting 2.0 ml of sterile physiological saline IP. After 1 minute of abdominal massage, the peritoneum was opened and peritoneal lavage fluid (PLF) withdrawn. PLF was immediately placed in an insulated 4 °C cooling box for transportation and kept on ice at 4 °C. The mouse peritonitis model was repeated in duplicates for E. coli ATCC 25922 and A. baumannii ATCC 19606 nad in triplicate for E. coli ESBL20150072, while only a single experiment was carried out on A. baumannii CR17. Animals were sacrificed at various times prior to and following infection. Data from repeated experiments were pooled for analyses. Quantification of bacterial load was performed by spot plating of blood and peritoneal fluid samples from the mice. Dilution series were made in sterile 0.9% NaCl solution, from which 20 μl was spotted on solid lactose agar plates (Bromthymole Blue plates, SSI Diagnostica). Bacterial counts were recorded after overnight incubation at 37 °C in ambient air. The detection limit was 50 CFU/ml. The clinical condition of the mice was determined using a self-developed clinical score. For this score, mouse behavior and appearance were observed and evaluated for the parameters piloerection, attitude, locomotion, breathing and curiosity and awarded a score from 0 to 5 by a blinded observer. 0 = no clinical signs, 1 = slightly ruffled fur, 2 = ruffled fur and strenuous breathing, 3 = 2 plus lethargy, 4 = 3 plus hunched posture and decreased activity, and 5 = moribund. No significant difference in the clinical score between groups was observed 2 and 4 h post treatment. All mice were recorded for score 2.

A. baumannii ATCC 19606 = test: In vivo sepsis/peritonitis mouse infection model; conditions: NMRI mice infected IP, 10 mg/kg IP at 1 and 3 h
E. coli and A. baumannii = test: Mouse peritonitis model, overall statement; format: in vivo; conditions: after two-dose treatment
Procedure: Outbred female NMRI mice (NMRI; weight 26–30 g; Taconic, Denmark) were used throughout the study, as previously described ([69], [70]). […] Colistin is recommended at a dose of 5-10 mg/kg, according to the European Medicines Agency (EMA) ([71]). The animals were kept in Macrolon type III cages in groups of six and allowed free access to feed and water. Experiments were initiated after an acclimatization period of 7 days. Inoculation (bacterial infection) was performed by intraperitoneal (IP) injection of 0.5 ml bacterial suspension containing 2×10^7 CFU/ml and 5% (wt/vol) mucin (Sigma-Aldrich). During experiments, groups of eight mice per cage constituting one experimental unit were randomly assigned to treatment (5 mg/kg ChIP and 10 mg/kg ChIP or colistin 10 mg/kg and 24 mg/kg) or no treatment (vehicle). […] Quantification of bacterial load was performed by spot plating of blood and peritoneal fluid samples from the mice. […] Bacterial counts were recorded after overnight incubation at 37 °C in ambient air. […] The clinical condition of the mice was determined using a self-developed clinical score. For this score, mouse behavior and appearance were observed and evaluated for the parameters piloerection, attitude, locomotion, breathing and curiosity and awarded a score from 0 to 5 by a blinded observer. […] All mice were recorded for score 2.

[4] = tested on: E. coli ML-35p inner membrane; test: Permeabilization assay (ONPG / β-galactosidase); format: cell-based; conditions: ChIP 4, 12 and 20 µg/ml for 20, 40 or 60 minutes; chloramphenicol 200 µg/ml pretreated; level higher than toluene or colistin 2 µg/ml
Procedure: Exponentially growing cells of E. coli ML35 (LacI^- LacY^- LacZ^+) were treated with chloramphenicol (200 µg/ml) to stop protein synthesis. Chloramphenicol treated samples were incubated with ChIP (4, 12 and 20 µg/ml) and colistin (2 µg/ml) for 20, 40 or 60 minutes (12 samples total). 200 µL peptide treated cells were added to 1 ml Z-buffer (0.06M Na2HPO4, 0.04M NaH2PO4, 0.01M KCL, 0.001M MgSO4 and pH = 7) containing 1 mg/ml Ortho-Nitrophenyl-β-galactoside (ONPG). Samples were left at room temperature 15 minutes before stopping color development by addition of 0.5 ml Na2CO3 (1M). Toluene treated cells were included as a control for permeabilized cells. β-galactosidase activity was detected by OD420 measurements.

[5] = tested on: Klebsiella pneumoniae ATCC 13883; conditions: ATCC 13883, reference strain; MHB-II, 37°C, ~5×10^5 CFU/ml, triplicate
P. aeruginosa B3-CFI = conditions: clinical isolate, colistin resistant, MHB-II, 37°C, ~5×10^5 CFU/ml, triplicate
[6] = cited from earlier work
[7] = 5 mg/kg IP at 1 and 3 h post infection
[8] = 10 mg/kg IP at 1 and 3 h post infection

Structure (SMILES): CC[C@@H](C)[C@@H](NC(=O)[C@@H](CCCCN)NC(=O)[C@@H](CCCCN)NC(=O)[C@@H](Cc1ccccc1)NC(=O)[C@@H](CC(C)C)NC(=O)[C@@H](CCCCN)NC(=O)[C@H](N)CCCCN)C(=O)N[C@H](CC(C)C)C(=O)N[C@H](CCCNC(=N)N)C(=O)N[C@H](Cc1ccc(O)cc1)C(=O)N[C@H](CC(C)C)C(N)=O [ChIP]
- MIC in MHB-II + Human serum (50:50) versus MHB-II (E. coli ATCC 25922 [1]): did not change the MIC
- reduction in viable cells (E. coli ATCC 25922 [2]): 3-4 log
- peritoneal bacterial titers after treatment (E. coli ATCC 25922 [3]; [7]): 1-5×10^5 CFU/ml
- reduction of peritoneal bacterial titers (E. coli ATCC 25922 [3]; [7]): 2 logs
- peritoneal CFUs after treatment (E. coli ATCC 25922 [3]; [8]): 1×10^3 CFU/ml
- reduction of peritoneal CFUs (E. coli ATCC 25922 [3]; [8]): 4 logs
- peritoneal titers (E. coli ESBL20150072): 1×10^4 CFU/ml
- reduction in peritoneal titers compared to vehicle (1×10^8 CFU/ml) (E. coli ESBL20150072): 3 logs
- reduction of peritoneal bacterial titers relative to saline control (A. baumannii ATCC 19606; after 5 hours): 3-4 log
- peritoneal bacterial titers (A. baumannii ATCC 19606; after 5 hours, saline control around 1×10^8 CFU/ml): 1×10^3-1×10^4 CFU/ml
- bacterial blood titers (A. baumannii ATCC 19606; detection limit 50 CFU/ml): reduce CFU/ml to the detection limit
- bacterial reduction intraperitoneal (E. coli and A. baumannii): up to 5 logs
- β-galactosidase activity (ONPG, OD420) of treated cells [4]: increased in a dose dependent manner
- MIC [5]: 4 µg/mL (≈ 2.76 µM)
- MIC (P. aeruginosa B3-CFI): 8 µg/mL (≈ 5.52 µM)
- hemolytic activity [6]: low hemolytic activity
